Experimental data reported in patent US20240269139A1, “COMPOUNDS FOR TARGETED PROTEIN DEGRADATION OF KINASES” (DANA-FARBER CANCER INSTITUTE, INC., priority 2020, published 2024).
Where “and” joins values, the source holds several entries; their conditions need not be identical. Equal entries are not always repeated. Where two headings read alike, the source gives them in different places.

How the values were obtained:
Type in all cases: cell-based
[1] = molecular target: protein kinases (human kinome) (Homo sapiens, UniProt P24941)
[2] = molecular target: protein kinases (human kinome) (Homo sapiens, UniProt P41240); details: for logFC of CSK: Accession P41240; for logFC CSK: CSK (P41240), down
[3] = molecular target: T1, protein kinases (human kinome) (Homo sapiens, UniProt Q14CZ7); details: Accession Q14CZ7, direction down
T1 sequence (Q14CZ7 1-662): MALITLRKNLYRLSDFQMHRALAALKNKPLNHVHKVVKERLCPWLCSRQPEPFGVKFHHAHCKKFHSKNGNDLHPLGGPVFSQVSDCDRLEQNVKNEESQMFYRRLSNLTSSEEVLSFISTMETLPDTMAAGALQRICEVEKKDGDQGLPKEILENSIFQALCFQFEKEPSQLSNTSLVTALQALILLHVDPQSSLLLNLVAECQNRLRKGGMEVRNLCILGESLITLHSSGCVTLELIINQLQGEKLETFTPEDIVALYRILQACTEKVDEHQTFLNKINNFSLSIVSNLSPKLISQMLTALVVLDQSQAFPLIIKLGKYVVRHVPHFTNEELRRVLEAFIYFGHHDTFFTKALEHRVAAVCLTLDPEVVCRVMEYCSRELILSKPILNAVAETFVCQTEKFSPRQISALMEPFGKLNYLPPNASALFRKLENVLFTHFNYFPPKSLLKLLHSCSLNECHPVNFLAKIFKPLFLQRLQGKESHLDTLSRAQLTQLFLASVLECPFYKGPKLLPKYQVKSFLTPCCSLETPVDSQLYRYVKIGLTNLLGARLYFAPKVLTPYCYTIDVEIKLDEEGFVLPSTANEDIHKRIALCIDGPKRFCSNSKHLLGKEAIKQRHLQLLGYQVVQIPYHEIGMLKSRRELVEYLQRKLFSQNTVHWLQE

[4] = molecular target: protein kinases (human kinome) (Homo sapiens, UniProt Q15118); details: PDK1 Q15118, experiment wp147
[5] = molecular target: protein kinases (human kinome) (Homo sapiens, UniProt P42684); details: for logFC: ABL2 (P42684) protein abundance, degrader vs DMSO, down
[6] = molecular target: protein kinases (human kinome) (Homo sapiens, UniProt Q07912); details: for logFC TNK2 (Q07912-1): direction down; for logFC TNK2: TNK2 (Q07912-1)
[7] = experiment wp137, direction of change down
[8] = experiment wp016, direction of change down

Chain of protein kinases (human kinome) (Homo sapiens, UniProt P41240) (P41240 whole entry): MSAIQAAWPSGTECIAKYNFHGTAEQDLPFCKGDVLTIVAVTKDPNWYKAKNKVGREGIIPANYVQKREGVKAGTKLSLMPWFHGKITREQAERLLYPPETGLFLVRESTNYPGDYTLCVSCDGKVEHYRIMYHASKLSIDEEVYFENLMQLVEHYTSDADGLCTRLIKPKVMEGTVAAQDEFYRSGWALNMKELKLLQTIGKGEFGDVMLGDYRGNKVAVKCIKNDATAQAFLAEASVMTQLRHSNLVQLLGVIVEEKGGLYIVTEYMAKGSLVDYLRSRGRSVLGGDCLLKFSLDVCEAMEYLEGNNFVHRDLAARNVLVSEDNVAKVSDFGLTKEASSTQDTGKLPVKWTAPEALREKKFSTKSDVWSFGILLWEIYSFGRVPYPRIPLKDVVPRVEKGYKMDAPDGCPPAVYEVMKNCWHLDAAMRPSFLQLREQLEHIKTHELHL
Chain of protein kinases (human kinome) (Homo sapiens, UniProt Q15118) (Q15118 29-436): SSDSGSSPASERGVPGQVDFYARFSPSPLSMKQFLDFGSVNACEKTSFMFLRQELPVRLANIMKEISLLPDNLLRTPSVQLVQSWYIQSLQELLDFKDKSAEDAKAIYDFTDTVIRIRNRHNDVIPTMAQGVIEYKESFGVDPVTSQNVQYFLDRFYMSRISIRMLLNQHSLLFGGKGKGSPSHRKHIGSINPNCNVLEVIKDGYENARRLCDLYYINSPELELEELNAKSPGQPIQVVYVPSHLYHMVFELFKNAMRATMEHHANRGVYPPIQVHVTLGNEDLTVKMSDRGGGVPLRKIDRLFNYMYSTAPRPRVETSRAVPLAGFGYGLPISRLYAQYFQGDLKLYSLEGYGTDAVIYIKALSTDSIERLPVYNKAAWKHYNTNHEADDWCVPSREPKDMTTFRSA
Chain of protein kinases (human kinome) (Homo sapiens, UniProt P42684) (P42684 whole entry): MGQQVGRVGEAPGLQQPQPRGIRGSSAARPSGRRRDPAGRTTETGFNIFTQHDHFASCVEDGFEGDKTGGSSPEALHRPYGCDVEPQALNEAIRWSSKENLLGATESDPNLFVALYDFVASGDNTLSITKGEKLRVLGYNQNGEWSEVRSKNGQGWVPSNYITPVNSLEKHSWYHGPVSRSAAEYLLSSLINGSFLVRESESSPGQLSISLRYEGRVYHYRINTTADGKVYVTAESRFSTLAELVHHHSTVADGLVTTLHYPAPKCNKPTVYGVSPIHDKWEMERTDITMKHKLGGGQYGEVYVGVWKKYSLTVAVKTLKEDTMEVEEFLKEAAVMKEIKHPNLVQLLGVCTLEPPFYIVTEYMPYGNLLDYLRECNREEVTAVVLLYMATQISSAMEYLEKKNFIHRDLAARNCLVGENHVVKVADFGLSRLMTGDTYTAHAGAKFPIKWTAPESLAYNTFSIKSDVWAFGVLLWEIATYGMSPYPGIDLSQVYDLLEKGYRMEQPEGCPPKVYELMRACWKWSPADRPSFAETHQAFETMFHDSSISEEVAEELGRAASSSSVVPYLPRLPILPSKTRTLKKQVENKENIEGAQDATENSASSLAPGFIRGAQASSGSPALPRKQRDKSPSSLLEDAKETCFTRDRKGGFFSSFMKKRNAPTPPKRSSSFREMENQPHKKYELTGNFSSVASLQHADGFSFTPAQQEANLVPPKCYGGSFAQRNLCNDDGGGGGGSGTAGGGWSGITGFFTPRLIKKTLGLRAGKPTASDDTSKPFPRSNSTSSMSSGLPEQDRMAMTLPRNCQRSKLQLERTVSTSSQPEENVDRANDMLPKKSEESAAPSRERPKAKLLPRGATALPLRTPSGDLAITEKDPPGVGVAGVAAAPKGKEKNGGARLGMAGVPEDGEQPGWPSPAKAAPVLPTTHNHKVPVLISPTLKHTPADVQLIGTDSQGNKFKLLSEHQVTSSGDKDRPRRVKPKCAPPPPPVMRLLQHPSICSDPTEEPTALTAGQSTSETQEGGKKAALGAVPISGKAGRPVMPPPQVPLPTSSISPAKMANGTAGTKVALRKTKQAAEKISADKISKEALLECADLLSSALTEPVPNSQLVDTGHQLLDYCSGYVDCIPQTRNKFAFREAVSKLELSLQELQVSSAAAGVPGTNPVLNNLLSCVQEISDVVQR
Chain of protein kinases (human kinome) (Homo sapiens, UniProt Q07912) (Q07912 whole entry): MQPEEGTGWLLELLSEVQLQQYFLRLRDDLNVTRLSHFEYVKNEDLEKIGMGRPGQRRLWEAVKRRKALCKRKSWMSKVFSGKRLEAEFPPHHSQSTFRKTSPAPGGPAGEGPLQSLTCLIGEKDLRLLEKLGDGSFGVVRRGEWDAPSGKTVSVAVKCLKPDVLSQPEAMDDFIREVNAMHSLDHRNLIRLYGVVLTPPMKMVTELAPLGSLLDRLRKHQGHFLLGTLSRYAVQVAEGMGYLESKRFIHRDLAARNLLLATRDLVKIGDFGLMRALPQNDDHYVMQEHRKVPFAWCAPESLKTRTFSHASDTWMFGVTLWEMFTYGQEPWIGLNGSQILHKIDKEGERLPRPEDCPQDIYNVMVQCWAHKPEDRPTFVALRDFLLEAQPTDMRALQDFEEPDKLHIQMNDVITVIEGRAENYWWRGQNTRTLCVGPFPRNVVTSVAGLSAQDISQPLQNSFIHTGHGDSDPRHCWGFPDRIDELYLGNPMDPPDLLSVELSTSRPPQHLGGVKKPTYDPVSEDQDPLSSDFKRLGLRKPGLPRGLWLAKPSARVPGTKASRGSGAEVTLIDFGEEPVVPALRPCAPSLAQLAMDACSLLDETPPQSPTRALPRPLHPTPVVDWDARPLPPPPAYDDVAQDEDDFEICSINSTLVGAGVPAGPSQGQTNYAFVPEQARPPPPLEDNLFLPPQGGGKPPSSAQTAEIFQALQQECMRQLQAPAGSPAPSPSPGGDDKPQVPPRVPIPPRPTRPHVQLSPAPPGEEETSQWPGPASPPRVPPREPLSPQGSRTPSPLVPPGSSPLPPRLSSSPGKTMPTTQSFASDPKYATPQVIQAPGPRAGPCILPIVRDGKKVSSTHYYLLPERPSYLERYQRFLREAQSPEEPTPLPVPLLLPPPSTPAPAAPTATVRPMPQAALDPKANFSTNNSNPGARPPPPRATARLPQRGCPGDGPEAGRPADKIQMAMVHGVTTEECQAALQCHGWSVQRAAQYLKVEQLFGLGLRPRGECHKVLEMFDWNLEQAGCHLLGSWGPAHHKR

## CC(C)(C)c1nc(-c2cccc(NS(=O)(=O)c3c(F)cccc3F)c2F)c(-c2ccnc(NCCOCCNC(=O)CCOCCOCCNc3cccc4c3C(=O)N(C3CCC(=O)NC3=O)C4=O)n2)s1 (stereo not drawn) [DD.03.106]
[1]; Experiment wp147, 2 uM
  logFC CDK2 (P24941-1): −0.4932
[1]; Experiment wp147, 4 uM
  logFC CDK2 (P24941-1): −0.5248
[1]; experiment wp137
  logFC CDK2 (P24941-1): −0.3437
[1]; [7]
  logFC CDK2 (P24941-1): −0.3437
[1]; experiment wp147, 1 uM
  logFC CDK2 (P24941-1): −0.3285
[1]; experiment wp147, 1 uM, direction of change down
  logFC CDK2 (P24941-1): −0.3285
[1]; experiment wp147, 2 uM, direction of change down
  logFC CDK2 (P24941-1): −0.4932
[1]; experiment wp147, 4 uM, direction of change down
  logFC CDK2 (P24941-1): −0.5248
[2]; experiment wp147, 4 uM
  logFC of CSK: −0.5149
  logFC CSK: −0.5149
[3]; experiment wp147, 4 uM
  logFC FASTKD3: −0.8259
[4]; 1 uM
  logFC: −0.3363
  logFC PDK1: −0.3363
[4]; 4 uM
  logFC: −0.6592
  logFC PDK1: −0.6592

## CC(C)S(=O)(=O)c1ccccc1Nc1nc(Nc2ccc(N3CCN(CCOCCNC(=O)CNc4cccc5c4C(=O)N(C4CCC(=O)NC4=O)C5=O)CC3)cc2)ncc1Cl (stereo not drawn) [SK.3.91]
[1]; Experiment wp103
  logFC CDK2 (P24941-1): −0.4588
[1]; Experiment wp105, direction of change down
  logFC CDK2 (P24941-1): −0.4593
[1]; Experiment wp107
  logFC CDK2 (P24941-1): −0.7583
[1]; Experiment wp160, 2 hr
  logFC CDK2 (P24941-1): −0.383
[1]; Experiment wp172
  logFC CDK2 (P24941-1): −0.8996
[1]; experiment wp016
  logFC CDK2 (P24941-1): −0.5115
[1]; experiment wp016, 1 uM
  logFC CDK2 (P24941-1): −1.047
[1]; experiment wp016, 1 uM, direction of change down
  logFC CDK2 (P24941-1): −1.047
[1]; [8]
  logFC CDK2 (P24941-1): −0.5115
[1]; experiment wp103, direction of change down
  logFC CDK2 (P24941-1): −0.4588
[1]; experiment wp105
  logFC CDK2 (P24941-1): −0.4593
[1]; experiment wp107, direction of change down
  logFC CDK2 (P24941-1): −0.7583
[1]; experiment wp133, 2 hr
  logFC CDK2 (P24941-1): −0.4306
[1]; experiment wp133, 2 hr, direction of change down
  logFC CDK2 (P24941-1): −0.4306
[1]; experiment wp133, 4 hr
  logFC CDK2 (P24941-1): −0.6908
[1]; experiment wp133, 4 hr, direction of change down
  logFC CDK2 (P24941-1): −0.6908
[1]; experiment wp160, 2 hr, direction of change down
  logFC CDK2 (P24941-1): −0.383
[1]; experiment wp160, 4 hr
  logFC CDK2 (P24941-1): −0.647
[1]; experiment wp160, 4 hr, direction of change down
  logFC CDK2 (P24941-1): −0.647
[1]; experiment wp172, direction of change down
  logFC CDK2 (P24941-1): −0.8996
[2]; experiment wp016
  logFC of CSK: −0.3254
  logFC CSK: −0.3254
[2]; experiment wp016, 1 uM
  logFC of CSK: −0.6596
  logFC CSK: −0.6596
[2]; experiment wp103
  logFC of CSK: −0.4343
  logFC CSK: −0.4343
[2]; experiment wp105
  logFC of CSK: −0.7044
  logFC CSK: −0.7044
[2]; experiment wp107
  logFC of CSK: −0.5646
  logFC CSK: −0.5646
[2]; experiment wp133, 4 hr
  logFC of CSK: −0.5492
  logFC CSK: −0.5492
[2]; experiment wp160, 4 hr
  logFC of CSK: −0.4976
  logFC CSK: −0.4976
[2]; experiment wp172
  logFC of CSK: −0.4225
  logFC CSK: −0.4225
[5]; 1 uM
  logFC: −1.077
[5]; 2 hr
  logFC: −0.3453
[5]; 4 hr
  logFC: −0.8519 and −0.7658
[5]; Experiment wp107
  logFC ABL2 (P42684): −1.032
[5]; experiment wp016
  logFC ABL2 (P42684): −0.4963
[5]; experiment wp016, 1 uM
  logFC ABL2 (P42684): −1.077
[5]; experiment wp133, 2 hr
  logFC ABL2 (P42684): −0.3453
[5]; experiment wp133, 4 hr
  logFC ABL2 (P42684): −0.8519
[5]; experiment wp160, 4 hr
  logFC ABL2 (P42684): −0.7658
[6]; Experiment wp133, 2 hr
  logFC TNK2 (Q07912-1): −1.053
[6]; Experiment wp133, 4 hr
  logFC TNK2 (Q07912-1): −2.261
[6]; experiment wp133, 2 hr
  logFC TNK2: −1.053
[6]; experiment wp133, 4 hr
  logFC TNK2: −2.261
[3]; experiment wp160, 1 hr
  logFC FASTKD3: −0.997

## CC(C)S(=O)(=O)c1ccccc1Nc1nc(Nc2ccc(N3CCN(CCOCCOCCNC(=O)CNc4cccc5c4C(=O)N(C4CCC(=O)NC4=O)C5=O)CC3)cc2)ncc1Cl (stereo not drawn) [TL12.186]
[1]; experiment wp016
  logFC CDK2 (P24941-1): −0.5971
[1]; [8]
  logFC CDK2 (P24941-1): −0.5971
[1]; experiment wp131
  logFC CDK2 (P24941-1): −0.98
[1]; experiment wp131, direction of change down
  logFC CDK2 (P24941-1): −0.98
[1]; experiment wp137
  logFC CDK2 (P24941-1): −0.9162
[1]; [7]
  logFC CDK2 (P24941-1): −0.9162
[5]
  logFC: −0.803
[5]; experiment wp137
  logFC ABL2 (P42684): −0.803
[6]; Experiment wp131
  logFC TNK2 (Q07912-1): −2.251
[6]; Experiment wp137
  logFC TNK2 (Q07912-1): −1.575
[6]; experiment wp131
  logFC TNK2: −2.251
[6]; experiment wp137
  logFC TNK2: −1.575
[3]; experiment wp137
  logFC FASTKD3: −0.6244
